The values below come from patent US20230203029A1 (priority 2020, published 2023).

Experiment [1] deals with T1, human MERTK cytoplasmic domain (Homo sapiens, UniProt Q12866).
T1 construct: human MERTK cytoplasmic domain (Carna Biosciences 08-108); purchased Carna Biosciences 08-108
The experiment is described as follows: biochemical. How it is done: Assay 1a—MERTK HTRF KinEASE-TK Assay
The enzymatic reaction was carried out for 30 min at room temperature. 10 μL TK Antibody-Cryptate/Streptavidin-XL665 (Cisbio 610SAXLG) was then added for 60 min, including EDTA containing detection buffer (Cisbio 62SDBRDF) to stop the reaction.

For experiment [2], the target named is T2, human AXL cytoplasmic domain (Homo sapiens, UniProt P30530).
T2 construct: human AXL cytoplasmic domain (Thermo Fisher A31515); purchased Thermo Fisher A31515
T2 sequence (P30530 473-894 limits assumed): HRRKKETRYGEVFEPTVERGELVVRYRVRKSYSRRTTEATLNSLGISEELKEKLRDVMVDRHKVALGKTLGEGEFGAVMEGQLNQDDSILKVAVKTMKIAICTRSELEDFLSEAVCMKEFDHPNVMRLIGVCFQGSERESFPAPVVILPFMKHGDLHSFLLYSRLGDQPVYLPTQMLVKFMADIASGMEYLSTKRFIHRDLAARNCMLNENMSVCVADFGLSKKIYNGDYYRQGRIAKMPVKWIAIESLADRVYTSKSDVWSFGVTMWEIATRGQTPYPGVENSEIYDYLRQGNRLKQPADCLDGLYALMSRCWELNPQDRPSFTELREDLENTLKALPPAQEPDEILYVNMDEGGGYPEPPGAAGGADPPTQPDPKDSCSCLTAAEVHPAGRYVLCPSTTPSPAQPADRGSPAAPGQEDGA
The experiment is described as follows: Assay 1b AXL HTRF KinEASE-TK assay. The experiment is classed as biochemical. How it is done: Assay 1b—AXL HTRF KinEASE-TK Assay
Compound inhibition of human AXL cytoplasmic domain (Thermo Fisher A31515) enzymatic activity was tested via the HTRF KinEASE-tyrosine kinase (TK) kit (Cisbio 62TK0PEC). Experiments were performed in 20 μl enzymatic buffer (Cisbio 62EZBFDD) supplemented with 5 mM MgCl2, 1 mM MnCl2, 1 mM DTT, 50 nM SEB (Cisbio, 61SEBALB), with 5 nM of AXL and the test compounds of interest. […] The enzymatic reaction was carried out for 30 min at room temperature. 10 μL TK Antibody-Cryptate/Streptavidin-XL665 (Cisbio 610SAXLG) was then added for 60 min, including EDTA containing detection buffer (Cisbio 62SDBRDF) to stop the reaction. The plate was read on a BMG Pherastar FSX using a HTRF 337/620/665 optical module to excite the terbium donor at 337 nm, and record donor emission at 620 nm and acceptor fluorophore emission at 665 nm. From this the FRET ratio (acceptor 665 nm/donor 620 nm) for each data point was calculated. […] Competition curves were then fit to a 4 parameter logistic equation including a variable slope factor to determine the IC50 (compound concentration that inhibits 50% of AXL activity).
A general note: Time-resolved FRET reads energy transfer from a long-lived donor to a nearby acceptor.

Experiment [3] deals with T3, Ba/F3 Pro B-cell line expressing TEL-human MERTK fusion domain (Homo sapiens, UniProt Q12866).
T3 sequence (Q12866 587-858 limits assumed): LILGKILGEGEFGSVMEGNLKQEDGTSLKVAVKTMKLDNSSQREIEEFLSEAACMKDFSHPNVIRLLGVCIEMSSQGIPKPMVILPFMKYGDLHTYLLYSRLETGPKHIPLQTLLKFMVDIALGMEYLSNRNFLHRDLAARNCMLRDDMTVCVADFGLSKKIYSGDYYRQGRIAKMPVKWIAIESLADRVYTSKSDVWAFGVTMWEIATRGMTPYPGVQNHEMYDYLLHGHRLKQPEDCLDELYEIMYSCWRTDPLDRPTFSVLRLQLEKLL
The experiment is classed as cell-based. How it is done:
(§1) Assay 5—Ba/F3 Cell Survival Assays.
(§2) The inhibitory potencies of compounds were assessed in a Ba/F3 cell survival assay, using the Ba/F3 Pro B-cell line, recombinantly expressing a BCR-human AXL kinase domain fusion protein (pACD320/AXL, Advanced Cellular Dynamics Inc), TEL-human MERTK fusion domain (pACD1000/MERTK, Advanced Cellular Dynamics Inc), TEL-human Tyro3 fusion domain (pACD1000/TYRO3, Advanced Cellular Dynamics Inc), or control TEL-none (ACD320, Advanced Cellular Dynamics Inc) BRC-none constructs (ACD1000, Advanced Cellular Dynamics Inc). 10 ng/mL recombinant murine IL3 (R&D, 403-ML-010) was included in the media when propagating negative control TEL-none or BCR-none lines only. […] The final assay DMSO concentration was 0.25%. Compound incubations were conducted for 48 h at 37° C./5% CO2, after which cell plate was equilibrated at room temperature for 20 minutes prior to assessing viability. 15 μl of Promega CellTiter-Glo reagent (G7572) was added to each well for 2 min on an orbital shaker to induce cell lysis.
(§3) The plate was then equilibrated for 5 min at room temperature and luminescence read on a BMG Pherastar FSX using the LUM plus optic module. […] Competition curves were then fit to a 4 parameter logistic equation including a variable slope factor to determine the IC50 (compound concentration causing a half-maximal inhibition of cell survival).

Experiment [4] deals with T4, Ba/F3 Pro B-cell line expressing BCR-human AXL kinase domain fusion protein (Homo sapiens, UniProt P30530).
T4 construct: P11274 (Breakpoint cluster region protein)
T4 sequence (P30530 536-807 limits assumed): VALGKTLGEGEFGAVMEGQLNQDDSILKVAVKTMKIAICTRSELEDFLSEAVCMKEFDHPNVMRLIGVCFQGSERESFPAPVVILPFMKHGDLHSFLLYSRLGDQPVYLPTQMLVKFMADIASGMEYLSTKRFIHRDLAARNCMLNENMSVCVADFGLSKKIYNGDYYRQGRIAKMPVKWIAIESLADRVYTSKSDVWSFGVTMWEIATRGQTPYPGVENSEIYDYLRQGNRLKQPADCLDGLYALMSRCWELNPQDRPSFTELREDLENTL
The experiment is described as follows: Assay 5 Ba/F3 cell survival assay, BCR-Axl. It is filed as cell-based. The note with it: read-out: BCR-Axl Ba/F3 IC50, 48 h, CellTiter-Glo. How it is done:
as §1, §2, §3
(In general: ATP-based viability assays read luminescence as a measure of living cells.)

Experiment [5] deals with T5, Ba/F3 Pro B-cell line expressing TEL-human Tyro3 fusion domain (Homo sapiens, UniProt Q06418).
T5 sequence (Q06418 518-790 limits assumed): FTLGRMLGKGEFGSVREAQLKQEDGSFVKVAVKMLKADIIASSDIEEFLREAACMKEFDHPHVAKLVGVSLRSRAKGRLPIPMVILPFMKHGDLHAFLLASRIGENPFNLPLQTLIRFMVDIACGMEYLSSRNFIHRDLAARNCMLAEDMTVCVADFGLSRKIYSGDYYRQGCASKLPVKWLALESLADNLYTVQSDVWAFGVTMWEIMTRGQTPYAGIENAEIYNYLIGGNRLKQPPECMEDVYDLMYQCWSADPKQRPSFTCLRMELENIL
It is filed as cell-based. Particulars: cell survival, 48 h, CellTiter-Glo. How it is done: as §1
as §2, with “only. Cells were maintained in RMPI 1640 (Corning 15-040-CV) culture media containing 10% heat inactivated semi-synthetic FBS (RMBIO FGR-BBT), 2 mM L-Glutamine (Sigma, G7513), 100 IU/mL Penicillin-[…] Streptomycin (Sigma, P4333), and 500 ng/mL Puromycin (Sigma, P8833). Experiments were performed in 50 μl growth media, including the test compounds of interest, and dispensing 5000 cells/well in logarithmic-phase growth into a 384 well white Optiplate (Perkin Elmer 6007299).” for “only.”
The plate was then equilibrated for 5 min at room temperature and luminescence read on a BMG Pherastar FSX using the LUM plus optic module. Data were normalised to measurements in the absence of competing compound (0% inhibition). Competition curves were then fit to a 4 parameter logistic equation including a variable slope factor to determine the IC50 (compound concentration causing a half-maximal inhibition of cell survival).

[6] abbreviates: 30 uM ATP, read-out: Assay 1a Mer IC50 30 uM ATP.
[7] abbreviates: cell survival, 48 h, CellTiter-Glo; read-out: TEL-MERTK Ba/F3 IC50.

Each structure is given as a SMILES string. Read-outs that look alike come from different tables or passages of the source.

T1 sequence (Q12866 527-999): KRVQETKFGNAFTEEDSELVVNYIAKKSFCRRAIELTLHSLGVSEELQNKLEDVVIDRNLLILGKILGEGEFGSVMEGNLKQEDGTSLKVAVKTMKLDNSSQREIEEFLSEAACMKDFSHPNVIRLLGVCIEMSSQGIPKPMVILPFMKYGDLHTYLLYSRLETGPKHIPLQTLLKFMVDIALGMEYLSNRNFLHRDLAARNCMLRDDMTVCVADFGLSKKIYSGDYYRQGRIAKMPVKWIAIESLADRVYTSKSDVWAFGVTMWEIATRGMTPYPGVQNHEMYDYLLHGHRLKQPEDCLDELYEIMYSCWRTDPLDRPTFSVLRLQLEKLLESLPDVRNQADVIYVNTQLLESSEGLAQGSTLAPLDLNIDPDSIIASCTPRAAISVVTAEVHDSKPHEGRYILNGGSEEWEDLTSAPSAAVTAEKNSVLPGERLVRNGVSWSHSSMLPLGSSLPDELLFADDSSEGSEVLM

Consider `CN1CCC(Oc2cc3c(Oc4ccc(NC(=O)c5cccn(-c6ccc(F)cc6)c5=O)nc4)ccnc3cn2)CC1` [Example 24, 1-(4-fluorophenyl)-N-[5-[[6-[(1-methyl-4-piperidyl)oxy]-1,7-naphthyridin-4-yl]oxy]-2-pyridyl]-2-oxo-pyridine-3-carboxamide], for which the IC50 turned out to be 6 nM in experiment [1]; 21 nM in experiment [2]; 6 nM in experiment [3] (read-out: TEL-MERTK Ba/F3 IC50; cell survival, 48 h, CellTiter-Glo); 6 nM in experiment [4]; 37 nM in experiment [5].
In the case of `Cc1nc(NC(=O)c2cccn(-c3ccc(F)cc3)c2=O)ccc1Oc1ccnc2cnc(C(=O)NC3CCN(C)CC3)cc12` [Example 26, 4-[[6-[[1-(4-fluorophenyl)-2-oxo-pyridine-3-carbonyl]amino]-2-methyl-3-pyridyl]oxy]-N-(1-methyl-4-piperidyl)-1,7-naphthyridine-6-carboxamide], the IC50 in experiment [1] (setting [6]) stood at 19 nM; in experiment [2] it was 360 nM; in experiment [3] (setting [7]), 55 nM; in experiment [4], 83 nM; in experiment [5], 1420 nM.
Take `O=C(Nc1ccc(Oc2ccnc3cnc(N4CCNCC4)cc23)cc1)c1cccc(-c2ccc(F)cc2)[n+]1[O-]` [Example 12.6, 6-(4-fluorophenyl)-1-oxido-N-[4-[(6-piperazin-1-yl-1,7-naphthyridin-4-yl)oxy]phenyl]pyridin-1-ium-2-carboxamide]: the IC50 came to 3 nM in experiment [1] (setting [6]); 31 nM in experiment [2]; 16 nM in experiment [3] (setting [7]); 6 nM in experiment [4]; 110 nM in experiment [5].
Turning to `CC(C)n1cc(C(=O)Nc2ccc(Oc3ccnc4cnc(C(=O)N[C@H]5CCN(C)C5)cc34)cn2)c(=O)n(-c2ccc(F)cc2)c1=O` [Example 27.4, 4-[[6-[[3-(4-fluorophenyl)-1-isopropyl-2,4-dioxo-pyrimidine-5-carbonyl]amino]-3-pyridyl]oxy]-N-[(3S)-1-methylpyrrolidin-3-yl]-1,7-naphthyridine-6-carboxamide], the IC50 in experiment [1] (setting [6]) turned out to be 14 nM; in experiment [3] (setting [7]), 44 nM; in experiment [4] it was 14 nM; in experiment [5], 377 nM.
Regarding `CN1CCC(C(=O)Nc2cc3c(Oc4ccc(NC(=O)c5cccn(-c6ccc(F)cc6)c5=O)nc4)ccnc3cn2)CC1` [Example 18.1, 1-(4-fluorophenyl)-N-[5-[[6-[(1-methylpiperidine-4-carbonyl)amino]-1,7-naphthyridin-4-yl]oxy]-2-pyridyl]-2-oxo-pyridine-3-carboxamide], the IC50 in experiment [1] (setting [6]) turned out to be 1 nM; in experiment [2], 10 nM; in experiment [3] (setting [7]), 13 nM; in experiment [5], 250 nM.
`CN1CCN(c2cc3c(Oc4ccc(NC(=O)c5cccn(-c6ccc(F)cc6)c5=O)nc4)ccnc3cn2)CC1` [Example 10.1, 1-(4-fluorophenyl)-N-[5-[[6-(4-methylpiperazin-1-yl)-1,7-naphthyridin-4-yl]oxy]-2-pyridyl]-2-oxo-pyridine-3-carboxamide]: the IC50 is 6 nM in experiment [1] (setting [6]), 14 nM in experiment [2], 16 nM in experiment [3] (setting [7]) and 119 nM in experiment [5].
For `O=C(Nc1ccc(Oc2ccnc3cnc(C4CCN(C5COC5)CC4)cc23)cn1)c1cccn(-c2ccc(F)cc2)c1=O` [Example 16.3, 1-(4-fluorophenyl)-N-[5-[[6-[1-(oxetan-3-yl)-4-piperidyl]-1,7-naphthyridin-4-yl]oxy]-2-pyridyl]-2-oxo-pyridine-3-carboxamide], in that order: 1 nM, 3 nM, 14 nM and 271 nM.
`CC(C)n1cc(C(=O)Nc2ccc(Oc3ccnc4cnc(C5CCN(C)CC5)cc34)cn2)c(=O)c(-c2ccc(F)cc2)c1` [Example 23, 5-(4-fluorophenyl)-1-isopropyl-N-[5-[[6-(1-methyl-4-piperidyl)-1,7-naphthyridin-4-yl]oxy]-2-pyridyl]-4-oxo-pyridine-3-carboxamide]: the IC50 is 3 nM in experiment [1] (setting [6]), 12 nM in experiment [2], 2 nM in experiment [3] (setting [7]) and 429 nM in experiment [5].
